Reference: patent US12569474B2, “Compositions and methods for treating anemia” (Akebia Therapeutics, Inc., priority 2013, dated 2026)
“Also recorded” adds a separate entry of the source.

Key:
[1] = system: healthy adult males; experiment: Phase I clinical trials in healthy adult males (overall); type: in vivo, human
Description: This was a surprising result for a number of reasons. […] Thus, particularly with regard to patients having a disease or condition associated with kidney impairment, a person of skill in the art would not expect that administration of a compound provided herein could cause an increase in a patient's serum hemoglobin levels while also mimicking the diurnal variation of serum EPO levels in healthy individuals and without raising the patients' baseline serum EPO levels.

[2] = system: healthy male adults; experiment: Phase 1a single ascending dose (SAD) study, EPO response; type: in vivo, human
[3] = system: patients with Stage 3 or 4 CKD; experiment: Phase 2a dose escalation study, 28 days; type: in vivo, human
Description: In a Phase 2a dose escalation study, 10 CKD patients received Compound 1 once daily for 28 days. Dosing began at 400 mg in CKD Stage 3 patients and 300 mg in CKD Stage 4 patients.

[4] = system: patients with CKD stage 3, 4, or 5 (not on dialysis); experiment: Randomized double-blind, placebo-controlled Phase 2a trial, 6 weeks; type: in vivo, human
Description: Current treatment of anemia associated with chronic kidney disease (CKD) with erythropoiesis-stimulating agents (ESAs) can lead to supraphysiological levels of circulating erythropoietin (EPO) that persist for days, a profile that may be associated with increased cardiovascular side effects and thromboembolic events. […] In a randomized double-blind, placebo-controlled Phase 2a trial, 93 patients with CKD stage 3, 4, or 5 (not on dialysis) received placebo or Compound 1 in the following dose groups: 240, 370, 500, or 630 mg once daily for 6 weeks. […] Erythropoietin was measured at baseline, week 2, end of treatment and follow up.
In a randomized double-blind, placebo-controlled Phase 2a clinical trial, 93 patients with CKD stage 3, 4, or 5 (not on dialysis) received placebo or Compound 1 in the following dose groups: 240, 370, 500, or 630 mg once daily for 6 weeks. […] TIBC and serum iron levels were measured at baseline, week 2, week 4, end of treatment (week 6) and follow up.
In a randomized double-blind, placebo-controlled Phase 2a trial, 93 patients with CKD stage 3, 4, or 5 (not on dialysis) received placebo or Compound 1 in the following dose groups: 240, 370, 500, or 630 mg once daily for 6 weeks.

[5] = system: patients having anemia secondary to CKD; experiment: Compound 1 at 500 mg in patients having anemia secondary to CKD: EPO levels and half-life over 24 hours; type: in vivo, human
Description: Current treatment of anemia associated with chronic kidney disease (CKD) with erythropoiesis-stimulating agents (ESAs) can lead to supraphysiological levels of circulating erythropoietin (EPO) that persist for days, a profile that may be associated with increased cardiovascular side effects and thromboembolic events. […] In a randomized double-blind, placebo-controlled Phase 2a trial, 93 patients with CKD stage 3, 4, or 5 (not on dialysis) received placebo or Compound 1 in the following dose groups: 240, 370, 500, or 630 mg once daily for 6 weeks. […]

[6] = system: healthy male adults; experiment: Phase 1b multiple ascending dose (MAD) study, EPO response; type: in vivo, human
[7] = Clinical data obtained to date (summary over studies); type: in vivo, human
Description: Furthermore, this is achieved with a modest increase in the daily peak level of EPO, but with no increase in basal (pre-dose) levels (in a manner that mimics the physiologic diurnal response in healthy individuals).

[8] = system: HIF prolyl hydroxylase; experiment: In Vitro HIF Prolyl Hydroxylase Inhibition Assay (HRE luciferase reporter); type: cell-based, human
Description: (§1) Materials and Methods: Cell Culture: Human hepatocellular carcinoma (Hep3B) cells were obtained from the American Type Culture Collection (ATCC, Mannassas, VA) and cultured according to ATCC recommendations. Cells were cultured at 37° C. in an atmosphere of 95% air and 5% C02 in a humidified incubator. Compound 13 was diluted to a stock concentration of 50 mM in DMSO (Sigma).
(§2) Cell Treatments: Hep3B cells were plated on 24 well plates. Subsets of Hep3B cultures were transfected with a HIF reporter plasmid (pHRE-luciferase) overnight. (See Sheta, et al., Oncogene. 2001 Nov. 15; 20(52):7624-34.) Cells were exposed to vehicle (1:1000 DMSO) or test Compound 13 at 50 m for 18 hours at 37° C. in an atmosphere of 95% air and 5% CO2 in a humidified incubator.
(§3) Analysis: After 48-hour culture, cell supernatants were subsequently collected, centrifuged at 15,000×g for 15 minutes at 4° C. to sediment debris.
In Vitro HIF Prolyl Hydroxylase Inhibition Assay: Cell lysates were assayed using the dual luciferase reporter-assay (Promega, Madison, WI, USA). Observed firefly luciferase activity was normalized to a co-transfected Renilla luciferase.
(§4) Compound 13 was assayed in duplicate. Fold change over the vehicle control was calculated. Compound 13 was tested at a concentration of 50 m. […] Resulting values for the In Vitro EPO Induction Assay, and In Vitro HIF Prolyl Hydroxylase Inhibition Assay are shown in Table 1 and Table 2.

[9] = system: EPO production in Hep3B cells; experiment: In Vitro EPO Induction Assay (secreted EPO immunoassay); type: cell-based, human
Description: as §1, §2, §3
In Vitro EPO Induction Assay: Secreted EPO levels were assayed by specific immunoassay (MesoScale Discovery, Gaithersburg, MD) in accordance with manufacturer's instructions.
as §4

[10] = 240, 370, 500, or 630 mg once daily for 6 weeks, all dose groups, ANOVA p<0.0001

SMILES: O=C(O)CNC(=O)c1ncc(-c2cccc(Cl)c2)cc1O [Compound 1, {[5-(3-chlorophenyl)-3-hydroxypyridine-2-carbonyl]amino}acetic acid]
- Rise in EPO relative to dose ([1]; Phase 1 studies): proportionate to the dose
- Serum EPO levels after administration ([1]; healthy adult males): returned to approximately baseline levels within twenty-four hours
- Serum hemoglobin levels ([1]; healthy adult males): able to increase serum hemoglobin levels
- EPO increase compared to placebo ([2]; 600 mg cohort, 8 hours, p=0.034): significant increase
- EPO rise compared to placebo ([2]; 900 and 1200 mg groups, 8, 12, 18, and 24 hours following dosing, p<0.01): significant, dose-dependent rises
- Hemoglobin by Day 29 ([3]; 10 CKD Stage 3 and 4 patients, once daily 28 days, start 400 mg (Stage 3) or 300 mg (Stage 4), +100 mg steps, baseline 9.91 g/dL): 10.54 g/dL
- Ferritin by Day 29 ([3]; 10 CKD Stage 3 and 4 patients, once daily 28 days, baseline 334.10 ng/mL): 271.70 ng/mL
- Tolerability ([3]; patients with Stage 3 or 4 CKD, 28 days): well-tolerated
- HGB (hemoglobin) at Week 6 compared to baseline and to placebo [4, 10]: able to increase serum hemoglobin levels; also recorded: significantly increased HGB; also recorded: significantly increased hemoglobin levels
- TIBC at Week 6 compared to baseline and to placebo [4, 10]: able to increase TIBC levels; also recorded: significantly increased TIBC
- TIBC dose relation at Week 6 ([4]; 240-630 mg once daily): dose-related increase in TIBC; also recorded: dose-related increase in total iron binding capacity
- Serum iron levels relative to baseline ([4]; Week 6): not associated with an increase in serum iron levels; also recorded: without increasing serum iron levels
- TSAT at Week 6 ([4]; Week 6): decrease in TSAT
- Hepcidin expression at low doses ([4]; low doses, such as the 240 mg group, Week 6): not accompanied by a decrease in hepcidin expression
- Serum levels of EPO over time ([4]; measured at baseline, week 2, end of treatment and follow up): did not increase significantly over time
- Daily EPO levels in CKD patients ([4]; mimicking the physiologic diurnal response): moderate daily increases in EPO levels
- Basal (pre-dose) EPO levels ([4]; prior to daily dose, 6 weeks): without increasing basal (pre-dose) EPO levels
- HGB dose response ([4]; starting from the lowest dose (240 mg)): clear dose-responsive increase in HGB
- Half-life in patients with anemia secondary to CKD compared to healthy individuals ([5]; CKD patients vs healthy adult males): approximately twice as long; also recorded: significantly longer
- Time to return to baseline EPO levels ([5]; dose of 500 mg, patients having anemia secondary to CKD): ≤ 24 h
- Peak EPO concentration ([6]; multiple ascending dose): dose responsive increase
- EPO concentration prior to the next morning dose ([6]; regardless of the dosing group): essentially returned to baseline
- Hepcidin and ferritin ([7]; dose responsive changes): decreases in hepcidin and ferritin
- Total iron binding capacity ([7]; dose responsive changes): increase in total iron binding capacity
- Baseline EPO ([7]; human, in vivo): without increasing baseline EPO
- EPO levels (daily) ([7]; similar to the physiologic diurnal response): modest dose-proportional daily increases in EPO levels

SMILES: NCCNC(=O)c1ncccc1O [Compound 13, N-(2-aminoethyl)-3-hydroxy-pyridine-2-carboxamide]
- Mean HIF PH Inhibition Activity (Relative Luciferase) ([8]; Hep3B cells transfected with pHRE-luciferase, Compound 13 at 50 µM, firefly normalized to Renilla, vehicle 1): 3.6
- HIF prolyl hydroxylase enzyme activity (result in words) ([8]; Hep3B cells, 50 µM, vs DMSO vehicle): inhibit HIF prolyl hydroxylase enzyme activity
- Fold Change (HIF PH inhibition activity, over vehicle control) ([8]; Hep3B cells, Compound 13 at 50 µM, inactive if ≤1.0 fold over control): 3.6
- Mean [EPO] ([9]; Compound 13, 18 hours, assayed in duplicate, vehicle 3.0736): 8.9137 mIU/mL
- Fold Change (EPO, over vehicle control) ([9]; Compound 13, inactive if ≤1.0 fold over control): 2.9001
- EPO production (result in words) ([9]; vs DMSO vehicle): increase EPO production
